Experimental data from patent US12459958B2, “Tricyclic compounds as HPK1 inhibitor and the use thereof” (BEIGENE, LTD., priority 2019, dated 2025).

Target: T1, HPK1 kinase (aa1-346, Life Technologies) (Homo sapiens, UniProt Q92918)
T1 construct: HPK1 kinase (aa1-346, Life Technologies); purchased Life Technologies
T1 sequence (Q92918 1-346): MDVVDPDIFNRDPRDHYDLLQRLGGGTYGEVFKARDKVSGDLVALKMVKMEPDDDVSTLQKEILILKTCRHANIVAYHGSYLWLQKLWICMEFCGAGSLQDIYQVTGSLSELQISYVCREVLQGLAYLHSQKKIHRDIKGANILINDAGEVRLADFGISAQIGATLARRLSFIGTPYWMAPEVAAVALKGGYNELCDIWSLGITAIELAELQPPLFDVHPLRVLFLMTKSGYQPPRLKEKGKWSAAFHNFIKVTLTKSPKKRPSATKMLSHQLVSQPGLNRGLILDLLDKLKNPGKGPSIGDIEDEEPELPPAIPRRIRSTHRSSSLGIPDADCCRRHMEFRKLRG
Assay: HPK Kinase Activity Assay at 1 mM ATP (TR-FRET)
Format: biochemical
Settings: HPK1 kinase 40 nM, 0.5 μM STK1 substrate, read-out: Enzymatic activity IC50
Experimental: HPK Kinase Activity Assay at 1 mM ATP
Compounds disclosed herein were tested for inhibition of HPK1 kinase (aa1-346, Life Technologies) activity in assays based on the time-resolved fluorescence-resonance energy transfer (TR-FRET) methodology. The assays were carried out in 384-well low volume black plates in a reaction mixture containing HPK1 kinase (40 nM), 1 mM ATP, 0.5 μM STK1 substrate and 0-10 μM compound in buffer containing 50 mM HEPES, 0.01% BSA, 0.1 mM Orthovanadate, 10 mM MgCl2, 1 mM DTT, pH=7.0, 0.005% Tween-20. The kinase was incubated with the compounds disclosed herein or DMSO for 60 minutes at room temperature and the reaction was initiated by the addition of ATP and STK1 substrate. After reaction at room temperature for 120 minutes, an equal volume of stop/detection solution was added according to the manufacture's instruction (CisBio). The stop/detection solution contained STK Antibody-Cryptate and XL665-conjugated streptavidin in Detection Buffer. The TR-FRET signals (ratio of fluorescence emission at 665 nm over emission at 620 nm with excitation at 337 nm wavelength) were recorded on a PHERAstar FS plate reader (BMG Labtech). Phosphorylation of STK1 substrate led to the binding of STK Antibody-Cryptate to the biotinylated STK1 substrate, which places fluorescent donor (Eu^3+ crypate) in close proximity to the accepter (Streptavidin-XL665), thus resulting in a high degree of fluorescence resonance energy transfer. The inhibition of HPK1 in presence of increasing concentrations of compounds was calculated based on the ratio of fluorescence at 665 nm to that at 620 nm. The IC50 for each compound was derived from fitting the data to the four-parameter logistic equation by Graphpad Prism software.

Compound	IC50
Cc1cc(-c2cnc3[nH]cc(-c4ccc(C(=O)N(C)C)cc4)c3c2)cc2c1N1CCN(C)CC1CC2 (stereo not drawn) [Example 1, 4-(5-(3,10-dimethyl-2,3,4,4a,5,6-hexahydro-1H-pyrazino[1,2-a]quinolin-8-yl)-1H-pyrrolo[2,3-b]pyridin-3-yl)-N,N-dimethylbenzamide]	31 nM
Cc1cc(-c2cnc3[nH]cc(-c4ccc(C(=O)N(C)C[C@H]5CCOC5)cc4)c3c2)cc2c1N1CCN(C)C[C@H]1CC2 [Example 5A, 4-(5-((R)-3,10-dimethyl-2,3,4,4a,5,6-hexahydro-1H-pyrazino[1,2-a]quinolin-8-yl)-1H-pyrrolo[2,3-b]pyridin-3-yl)-N-methyl-N—(((R)-tetrahydrofuran-3-yl)methyl)benzamide]	32 nM
Cc1cc(-c2cnc3[nH]cc(-c4ccc(C(=O)N(C)C[C@H]5CCOC5)cc4)c3c2)cc2c1N1CCN(C)C[C@@H]1CC2 [Example 5B, 4-(5-((S)-3,10-dimethyl-2,3,4,4a,5,6-hexahydro-1H-pyrazino[1,2-a]quinolin-8-yl)-1H-pyrrolo[2,3-b]pyridin-3-yl)-N-methyl-N—(((R)-tetrahydrofuran-3-yl)methyl)benzamide]	27 nM
Cc1cc(-c2c[nH]c3ncc(-c4cc(C)c5c(c4)CC[C@@H]4CN(C)CCN54)nc23)ccc1C(=O)N(C)C [Example 6A, (R)-4-(2-(3,10-dimethyl-2,3,4,4a,5,6-hexahydro-1H-pyrazino[1,2-a]quinolin-8-yl)-5H-pyrrolo[2,3-b]pyrazin-7-yl)-N,N,2-trimethylbenzamide]	36 nM
Cc1cc(-c2c[nH]c3ncc(-c4cc(C)c5c(c4)CC[C@H]4CN(C)CCN54)nc23)ccc1C(=O)N(C)C [Example 6B, (S)-4-(2-(3,10-dimethyl-2,3,4,4a,5,6-hexahydro-1H-pyrazino[1,2-a]quinolin-8-yl)-5H-pyrrolo[2,3-b]pyrazin-7-yl)-N,N,2-trimethylbenzamide]	47 nM
Cc1cc(-c2c[nH]c3ncc(-c4cc(C)c5c(c4)CC[C@@H]4CN(C)CCN54)nc23)ccc1C(=O)N1CC2(COC2)C1 [Example 8A, (R)-(4-(2-(3,10-dimethyl-2,3,4,4a,5,6-hexahydro-1H-pyrazino[1,2-a]quinolin-8-yl)-5H-pyrrolo[2,3-b]pyrazin-7-yl)-2-methylphenyl)(2-oxa-6-azaspiro[3.3]heptan-6-yl)methanone]	58 nM
Cc1cc(-c2c[nH]c3ncc(-c4cc(C)c5c(c4)CC[C@H]4CN(C)CCN54)nc23)ccc1C(=O)N1CC2(COC2)C1 [Example 8B, (S)-(4-(2-(3,10-dimethyl-2,3,4,4a,5,6-hexahydro-1H-pyrazino[1,2-a]quinolin-8-yl)-5H-pyrrolo[2,3-b]pyrazin-7-yl)-2-methylphenyl)(2-oxa-6-azaspiro[3.3]heptan-6-yl)methanone]	61 nM

These reach a lower IC50. Values come first.

IC50	Compound
23 nM	Cc1cc(-c2cnc3[nH]cc(-c4ccc(C(=O)N(C)C)cc4)c3n2)cc2c1N1CCN(C)C[C@H]1CC2 [Example 7A, (R)-4-(2-(3,10-dimethyl-2,3,4,4a,5,6-hexahydro-1H-pyrazino[1,2-a]quinolin-8-yl)-5H-pyrrolo[2,3-b]pyrazin-7-yl)-N,N-dimethylbenzamide]
22 nM	Cc1cc(-c2cnc3[nH]cc(-c4ccc(C(=O)N(C)C)cc4)c3n2)cc2c1N1CCN(C)C[C@@H]1CC2 [Example 7B, (S)-4-(2-(3,10-dimethyl-2,3,4,4a,5,6-hexahydro-1H-pyrazino[1,2-a]quinolin-8-yl)-5H-pyrrolo[2,3-b]pyrazin-7-yl)-N,N-dimethylbenzamide]
21 nM	Cc1cc(-c2cnc3[nH]cc(-c4ccc(C(=O)N(C)C[C@@H](C)O)cc4)c3c2)cc2c1N1CCN(C)C[C@H]1CC2 [Example 3A, 4-(5-((R)-3,10-dimethyl-2,3,4,4a,5,6-hexahydro-1H-pyrazino[1,2-a]quinolin-8-yl)-1H-pyrrolo[2,3-b]pyridin-3-yl)-N—((R)-2-hydroxypropyl)-N-methylbenzamide]
21 nM	Cc1cc(-c2cnc3[nH]cc(-c4ccc(C(=O)N5CC6(COC6)C5)cc4)c3n2)cc2c1N1CCN(C)C[C@@H]1CC2 [Example 9B, (S)-(4-(2-(3,10-dimethyl-2,3,4,4a,5,6-hexahydro-1H-pyrazino[1,2-a]quinolin-8-yl)-5H-pyrrolo[2,3-b]pyrazin-7-yl)phenyl)(2-oxa-6-azaspiro[3.3]heptan-6-yl)methanone]
19 nM	Cc1cc(-c2cnc3[nH]cc(-c4ccc(C(=O)N(C)C[C@H](C)O)cc4)c3c2)cc2c1N1CCN(C)C[C@@H]1CC2 [Example 2B, 4-(5-((S)-3,10-dimethyl-2,3,4,4a,5,6-hexahydro-1H-pyrazino[1,2-a]quinolin-8-yl)-1H-pyrrolo[2,3-b]pyridin-3-yl)-N—((S)-2-hydroxypropyl)-N-methylbenzamide]
18 nM	Cc1cc(-c2cnc3[nH]cc(-c4ccc(C(=O)N(C)C[C@@H](C)O)cc4)c3c2)cc2c1N1CCN(C)C[C@@H]1CC2 [Example 3B, 4-(5-((S)-3,10-dimethyl-2,3,4,4a,5,6-hexahydro-1H-pyrazino[1,2-a]quinolin-8-yl)-1H-pyrrolo[2,3-b]pyridin-3-yl)-N—((R)-2-hydroxypropyl)-N-methylbenzamide]
17 nM	Cc1cc(-c2cnc3[nH]cc(-c4ccc(C(=O)N5CC6(COC6)C5)cc4)c3n2)cc2c1N1CCN(C)C[C@H]1CC2 [Example 9A, (R)-(4-(2-(3,10-dimethyl-2,3,4,4a,5,6-hexahydro-1H-pyrazino[1,2-a]quinolin-8-yl)-5H-pyrrolo[2,3-b]pyrazin-7-yl)phenyl)(2-oxa-6-azaspiro[3.3]heptan-6-yl)methanone]
17 nM	Cc1cc(-c2cnc3[nH]cc(-c4ccc(C(=O)N(C)C[C@@H]5CCOC5)cc4)c3n2)cc2c1N1CCN(C)C[C@H]1CC2 [Example 10A, 4-(2-((R)-3,10-dimethyl-2,3,4,4a,5,6-hexahydro-1H-pyrazino[1,2-a]quinolin-8-yl)-5H-pyrrolo[2,3-b]pyrazin-7-yl)-N-methyl-N—(((S)-tetrahydrofuran-3-yl)methyl)benzamide]
15 nM	Cc1cc(-c2cnc3[nH]cc(-c4ccc(C(=O)N(C)C[C@@H]5CCOC5)cc4)c3c2)cc2c1N1CCN(C)C[C@@H]1CC2 [Example 4B, 4-(5-((S)-3,10-dimethyl-2,3,4,4a,5,6-hexahydro-1H-pyrazino[1,2-a]quinolin-8-yl)-1H-pyrrolo[2,3-b]pyridin-3-yl)-N-methyl-N—(((S)-tetrahydrofuran-3-yl)methyl)benzamide]
14 nM	Cc1cc(-c2cnc3[nH]cc(-c4ccc(C(=O)N(C)C[C@H](C)O)cc4)c3c2)cc2c1N1CCN(C)C[C@H]1CC2 [Example 2A, 4-(5-((R)-3,10-dimethyl-2,3,4,4a,5,6-hexahydro-1H-pyrazino[1,2-a]quinolin-8-yl)-1H-pyrrolo[2,3-b]pyridin-3-yl)-N—((S)-2-hydroxypropyl)-N-methylbenzamide]
14 nM	Cc1cc(-c2cnc3[nH]cc(-c4ccc(C(=O)N(C)C[C@@H]5CCOC5)cc4)c3c2)cc2c1N1CCN(C)C[C@H]1CC2 [Example 4A, 4-(5-((R)-3,10-dimethyl-2,3,4,4a,5,6-hexahydro-1H-pyrazino[1,2-a]quinolin-8-yl)-1H-pyrrolo[2,3-b]pyridin-3-yl)-N-methyl-N—(((S)-tetrahydrofuran-3-yl)methyl)benzamide]
